Results reported in US20110178064A1, “SPIRO CONDENSED […] DERIVATIVES FOR USE AS ANTIBACTERIAL” (A[…]&D, priority 2007, published 2011).
pIC50: −log10 of the molar value.

Molecular target: Escherichia coli DNA gyrase A/B tetramer (Escherichia coli, UniProt P0AES4+P0AES6)
Assay: DNA gyrase supercoiling activity fluorescence polarisation assay
Assay type: biochemical
Method: The supercoiling reactions may be quenched by the addition of 10 microliters/well of 40 nM oligodeoxynucleotide probe in 3× triplex-forming buffer consisting of 150 mM NaCl, and 150 mM sodium acetate at pH 3.5. The oligodeoxynucleotide probe may be 5′-BODIPY-FL-labeled […]. After 60 minutes, the fluorescence anisotropy of the BODIPY-FL may be measured in a Tecan Ultra plate reader, using 485 nm excitation and 535 nm emission filters equipped with polarizers. The IC50 may be determined by nonliner regression using two control reactions. The first contains no test compound but 0.8% DMSO (100% activity) while the second control reaction contains 5 uM Ciprofloxacin and 0.8% DMSO (0% activity).

Escherichia coli DNA gyrase A/B tetramer, sequence (P0AES4 whole entry, one chain of several): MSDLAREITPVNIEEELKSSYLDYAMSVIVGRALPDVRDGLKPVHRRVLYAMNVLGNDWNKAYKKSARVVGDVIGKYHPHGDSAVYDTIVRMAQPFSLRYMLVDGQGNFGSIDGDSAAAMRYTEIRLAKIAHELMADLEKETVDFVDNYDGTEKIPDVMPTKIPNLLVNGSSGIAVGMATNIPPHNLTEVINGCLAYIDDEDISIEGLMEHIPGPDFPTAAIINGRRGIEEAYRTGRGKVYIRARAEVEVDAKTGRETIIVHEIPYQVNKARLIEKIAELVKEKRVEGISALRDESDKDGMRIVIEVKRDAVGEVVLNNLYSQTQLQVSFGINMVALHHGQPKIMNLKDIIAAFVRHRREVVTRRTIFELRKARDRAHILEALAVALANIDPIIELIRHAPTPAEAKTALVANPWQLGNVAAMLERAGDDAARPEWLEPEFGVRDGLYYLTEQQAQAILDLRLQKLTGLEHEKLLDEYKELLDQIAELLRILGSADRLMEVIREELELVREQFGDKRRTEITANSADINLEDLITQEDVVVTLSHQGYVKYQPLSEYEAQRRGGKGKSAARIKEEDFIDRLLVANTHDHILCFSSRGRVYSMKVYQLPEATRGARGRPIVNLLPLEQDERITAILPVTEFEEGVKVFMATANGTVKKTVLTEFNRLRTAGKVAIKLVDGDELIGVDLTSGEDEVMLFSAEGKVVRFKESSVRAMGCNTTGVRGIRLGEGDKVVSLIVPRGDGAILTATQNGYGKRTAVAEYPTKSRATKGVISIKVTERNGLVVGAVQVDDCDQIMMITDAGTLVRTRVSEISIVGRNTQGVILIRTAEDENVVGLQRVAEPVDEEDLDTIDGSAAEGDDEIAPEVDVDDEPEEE

| Compound | pIC50 |
| --- | --- |
| C[C@@H]1CN2c3nc(F)c(C#Cc4cnccn4)cc3CC3(C(=O)NC(=O)NC3=O)[C@H]2[C@H](C)O1 (racemic) [Example 22, (6aS,7S,9R)-rel-2-Fluoro-7,9-dimethyl-3-(pyrazin-2-ylethynyl)-6a,7,9,10-tetrahydro-1′H,5H-spiro[[4]oxazino[4,3-a][1,8]naphthyridine-6,5′-pyrimidine]-2′,4′,6′(3′H)-trione] | 5.40 |
| C[C@@H]1CN2c3ncc(-c4nccn4C)cc3CC3(C(=O)NC(=O)NC3=O)[C@H]2[C@H](C)O1 (racemic) [Example 32, (6aS,7S,9R)-rel-7,9-Dimethyl-3-(1-methyl-1H-imidazol-2-yl)-6a., 7,9,10-tetrahydro-2′H,5H-spiro[1,4-oxazino[4,3-a][1,8]naphthyridine-6,5′-pyrimidine]-2′,4′,6′(1′H,3′H)-trione] | 4.62 |
| Cc1cscc1-c1cnc2c(c1)CC1(C(=O)NC(=O)NC1=O)[C@H]1[C@H](C)O[C@H](C)CN21 (racemic) [Example 34, (6aS,7S,9R)-rel-7,9-Dimethyl-3-(4-methylthiophen-3-yl)-6a,7,9,10-tetrahydro-2′H,5H-spiro[1,4-oxazino[4,3-a][1,8]naphthyridine-6,5′-pyrimidine]-2′,4′,6′(1′H,3′H-trione] | 4.82 |
| C[C@@H]1CN2c3cnc(-c4cc5ccccc5o4)cc3CC3(C(=O)NC(=O)NC3=O)[C@H]2[C@H](C)O1 (racemic) [Example 53, (6aS,7S,9R)-rel-3-(1-Benzofuran-2-yl)-7,9-dimethyl-6a,7,9,10-tetrahydro-2′H,5H-spiro[1,4-oxazino[4,3-a][1,7]napthyridine-6,5′-pyrimidine]2′,4′,6′(1′H,3′H)-trione] | 4.80 |
| C[C@@H]1CN2c3cnc(-c4ccco4)cc3CC3(C(=O)NC(=O)NC3=O)[C@H]2[C@H](C)O1 (racemic) [Example 54, (6aS,7S,9R)-rel-3-(Furan-2-yl)-7,9-dimethyl-6a,7,9,10-tetrahydro-2′H,5H-spiro[1,4-oxazino[4,3-a][1,7]naphthyridine-6,5′-pyrimidine]-2′,4′,6′(1′H3″H)-trione] | < 4.08 |
| COc1ccncc1-c1cc2c(cn1)N1C[C@@H](C)O[C@@H](C)[C@@H]1C1(C2)C(=O)NC(=O)NC1=O (racemic) [Example 58, (6aS,7S,9R)-rel-3-(4-Methoxypyridin-3-yl)-7,9-dimethyl-6a,7,9,10-tetrahydro-2′H,5H-spiro[1,4-oxazino[4,3-a][1,7]naphthyridine-6,5′-pyrimidine]-2′,4′,6′(1″H3″H)-trione] | < 4.08 |
| C[C@@H]1CN2c3cnc(-c4cccnc4)cc3CC3(C(=O)NC(=O)NC3=O)[C@H]2[C@H](C)O1 (racemic) [Example 61, (6aS,7S,9R)-rel-7,9-Dimethyl-3-pyridin-3-yl)-6a,7,9,10-tetrahydro-2′H,5H-spiro[1,4-oxazino[4,3-a][1,7]naphthyridine-6,5′-pyrimidine]-2′,4′,6′(1′H,3′H)-trione] | 4.74 |
| C[C@@H]1CN2c3ccc(-c4ccccn4)nc3CC3(C(=O)NC(=O)NC3=O)[C@H]2[C@H](C)O1 (racemic) [Example 69, (2R,4S,4aS)-rel-2,4-Dimethyl-8-(pyridin-2-yl)-1,2,4,4a-tetrahydro-2′H,6H-spiro[1,4-oxazino[4,3-a][1,5]naphthyridine-5,5′-pyrimidine]-2′,4′,6′(1′H3″H)-trione] | 4.54 |
| C[C@@H]1CN2c3cnc(-c4nccs4)cc3CC3(C(=O)NC(=O)NC3=O)[C@H]2[C@H](C)O1 (racemic) [Example 86, (6aS,7S,9R)-rel-7,9-Dimethyl-3-(1,3-thiazol-2-yl)-6a., 7,9,10-tetrahydro-2′H,5H-spiro[1,4-oxazino[4,3-a][1,7]naphthyridine-6,5′-pyrimidine]-2′,4′,6′(1′H,3′H)-trione] | 4.21 |
| COc1nc2c(cc1-c1nnc(C)s1)CC1(C(=O)NC(=O)NC1=O)[C@H]1[C@H](C)O[C@H](C)CN21 (racemic) [Example 119, (6aS,7S,9R)-rel-2-Methoxy-7,9-dimethyl-3-(5-methyl-1,3,4-thiadiazol-2-yl)-6a,7,9,10-tetrahydro-1′H,5H-spiro[[1,4]oxazino[4,3-a][1,8]naphthyridine-6,5′-pyrimidine]-2′., 4′,6′(3′H)-trione] | 4.68 |
| C[C@@H]1CN2c3ncc(-c4nncs4)cc3CC3(C(=O)NC(=O)NC3=O)[C@H]2[C@H](C)O1 (relative stereo) [Example 1, (6aS,7S,9R)-rel-7,9-Dimethyl-3-(1,3,4-thiadiazol-2-yl)-6a,7,9,10-tetrahydro-2′H,5H-spiro[1,4-oxazino[4,3-a][1,8]naphthyridine-6,5′-pyrimidine]-2′,4′,6′(1′H,3′H)-trione] | 5.15 |
| C[C@@H]1CN2c3cnc(Br)cc3CC3(C(=O)NC(=O)NC3=O)[C@H]2[C@H](C)O1 (relative stereo) [Example 3, (6aS,7S,9R)-rel-3-Bromo-7,9-dimethyl-6a,7,9,10-tetrahydro-1′H,5H-spiro[[1,4]oxazino[4,3-a][1,7]naphthyridine-6,5′-pyrimidine]-2′,4′,6′(3′H)-trione] | 4.96 |
| C[C@@H]1CN2c3cncc(F)c3CC3(C(=O)NC(=O)NC3=O)[C@H]2[C@H](C)O1 (relative stereo) [Example 6, (6aS,7S,9R)-rel-4-Fluoro-7,9-dimethyl-6a,7,9,10-tetrahydro-1′H,5H-spiro[[1,4]oxazino[4,3-a][1,7]naphthyridine-6,5′-pyrimidine]-2′,4′,6′(3′H)-trione] | < 4.08 |
| C[C@@H]1CN2c3ncc(Br)cc3CC3(C(=O)NC(=O)NC3=O)[C@H]2[C@H](C)O1 (relative stereo) [Example 9, (6aS,7S,9R)-rel-3-Bromo-7,9-dimethyl-6a,7,9,10-tetrahydro-1′H,5H-spiro[[1,4]oxazino[4,3-a][1,8]naphthyridine-6,5′-pyrimidine]-2′,4′,6′(3′H)-trione] | 5.52 |
| C[C@@H]1CN2c3c(ccnc3Cl)CC3(C(=O)NC(=O)NC3=O)[C@H]2[C@H](C)O1 (relative stereo) [Example 12, (6aS,7S,9R)-rel-1-chloro-7,9-dimethyl-6a,7,9,10-tetrahydro-1′H,5H-spiro[[1,4]oxazino[4,3-a][1,7]naphthyridine-6,5′-pyrimidine]-2′,4′,6′(3′H)-trione] | 4.68 |
| C[C@@H]1CN2c3nc(F)c(I)cc3CC3(C(=O)NC(=O)NC3=O)[C@H]2C(=O)N1 (relative stereo) [Example 14, (6aS,9R)-rel-2-Fluoro-3-iodo-9-methyl-9,10-dihydro-1′H-spiro[pyrazino[1,2-a][1,8]naphthyridine-6,5′-pyrimidine]-2′,4′,6′,7(3′H,5H,6aH,8H)-tetraone] | 4.96 |
| Cc1nnc(-c2cc3c(nc2F)N2C[C@@H](C)O[C@@H](C)[C@@H]2C2(C3)C(=O)NC(=O)NC2=O)s1 (relative stereo) [Example 16, (6aS,7S,9R)-rel-2-Fluoro-7,9-dimethyl-3-(5-methyl-1,3,4-thiadiazol-2-yl)-6a,7,9,10-tetrahydro-1′H,5H-spiro[[1,4]oxazino[4,3-a][1,8]naphthyridine-6,5′-pyrimidine]-2′,4′,6′(3′H)-trione] | 5.15 |
| C[C@@H]1CN2c3nc(F)ccc3CC3(C(=O)NC(=O)NC3=O)[C@H]2[C@H](C)O1 (relative stereo) [Example 20, (6aS,7S,9R)-rel-2-Fluoro-7,9-dimethyl-6a,7,9,10-tetrahydro-1′H,5H-spiro[[1,4]oxazino[4,3-a][1,8]naphthyridine-6,5′-pyrimidine]-2′,4′,6′(3′H)-trione] | 4.60 |
| C[C@@H]1CN2c3nc(F)c(C#Cc4ccccn4)cc3CC3(C(=O)NC(=O)NC3=O)[C@H]2[C@H](C)O1 (relative stereo) [Example 21, (6aS,7S,9R)-rel-2-fluoro-7,9-dimethyl-3-(pyridin-2-ylethynyl)-6a,7,9,10-tetrahydro-1′H,5H-spiro[[1,4]oxazino[4,3-a][1,8]naphthyridine-6,5′-pyrimidine]-2′,4′,6′(3′H)-trione] | 5.00 |
| COc1ccc(C#Cc2cc3c(nc2F)N2C[C@@H](C)O[C@@H](C)[C@@H]2C2(C3)C(=O)NC(=O)NC2=O)cc1 (relative stereo) [Example 23, (6aS,7S,9R)-rel-2-Fluoro-3-((4-methoxyphenyl)ethynyl)-7,9-dimethyl-6a,7,9,10-tetrahydro-1′H,5H-spiro[[1,4]oxazino[4,3-a][1,8]naphthyridine-6,5′-pyrimidine]-2′,4′,6′(3′H)-trione] | 5.22 |
| Cc1nnc(-c2cnc3c(c2)CC2(C(=O)NC(=O)NC2=O)[C@H]2[C@H](C)O[C@H](C)CN32)s1 (relative stereo) [Example 24, (6aS,7S,9R)-rel-7,9-Dimethyl-3-(5-methyl-1,3,4-thiadiazol-2-yl)-6a,7,9,10-tetrahydro-2′H,5H-spiro[1,4-oxazino[4,3-a][1,8]naphthyridine-6,5′-pyrimidine]-2′,4′,6′(1′H,3′H)-trione] | < 5.30 |
| C[C@@H]1CN2c3ncc(-c4cncs4)cc3CC3(C(=O)NC(=O)NC3=O)[C@H]2[C@H](C)O1 (relative stereo) [Example 26, (6aS,7S,9R)-rel-7,9-Dimethyl-3-(1,3-thiazol-5-yl)-6a,7,9,10-tetrahydro-2′H,5H-spiro[1,4-oxazino[4,3-a][1,8]naphthyridine-6,5′-pyrimidine]-2′,4′,6′(1′H,3′H)-trione] | 5.40 |
| C[C@@H]1CN2c3ncc(-c4cc5ccccc5s4)cc3CC3(C(=O)NC(=O)NC3=O)[C@H]2[C@H](C)O1 (relative stereo) [Example 28, (6aS,7S,9R)-rel-3-(1-Benzothiophen-2-yl)-7,9-dimethyl-6a,7,9,10-tetrahydro-2′H,5H-spiro[1,4-oxazino[4,3-a][1,8]naphthyridine-6,5′-pyrimidine]-2′,4′,6′(1′H,3′H)-trione] | 5.70 |
